Patent US20230242616A1, “CHEMOKINE-SELECTIVE CXCR4 ECTODOMAIN-DERIVED (POLY)PEPTIDE” (Ludwig-Maximilians-Universität München, priority 2020, published 2023)
Entries after “also recorded” stand apart in the source; their conditions may differ. Where two headings read alike, the source gives them in different places. Where a SMILES comes first, the peptide text is derived from it. [ ]: non-standard residue; d: D form. 12Ado = NCCCCCCCCCCCC(=O)O; Aoc = NCCCCCCCC(=O)O; Ahx = NCCCCCC(=O)O; AEA = NCCOCC(=O)O

Assays:
[1] = test system: primary mouse spleen B lymphocytes; test: Transwell chemotaxis of B cells elicited by MIF; assay type: cell-based; details: 16 nM MIF
Protocol: Chemotaxis analysis of murine B cells. A Transwell-based assay was used as described previously^34. Briefly, splenic B cells were isolated by negative depletion using a Pan B Cell Isolation Kit (Miltenyi Biotec. Bergisch Gladbach, Germany). Purity of the cells was between 95 and 99%. […] Chemotaxis was followed for 4 h at 37° C. in a humidified atmosphere of 5% CO2. Migrated cells were counted by flow cytometry using CountBright™ Absolute Counting Beads (Molecular Probes-Invitrogen).

CXCL12 = molecular target: T1, CXCL12 (Homo sapiens, UniProt P48061); test: Fluorescence spectroscopic titration, binding to CXCL12
T1 construct: purchased Peprotech (or a gift of Dr. von Hundelshausen, LMU Munich)
Protocol: (§1) Fluorescence spectroscopy. Fluorescence spectroscopic titrations were performed as described^28, 32. Fluorescence spectra were recorded using a JASCO FP-6500 fluorescence spectrophotometer. […] Apparent KD values (app. KD) were calculated assuming a 1/1 binding model^32.

[2] = test system: primary human monocyte-derived macrophages; test: Dil-LDL uptake / foam cell formation, MIF-mediated; assay type: cell-based
Protocol: Dil-LDL uptake/foam cell formation. […] After washing with imaging solution (MEM without phenol red containing 30 mM HEPES, 0.5 g/L NaHCO3, pH 7.4, and 0.2% BSA), cells were exposed to 50 μg/mL 1,1′-dioctadecyl-3,3,3′3′-tetra-methylindocarbocyanine-labeled LDL (Dil-LDL) for 30 min at 4° C. followed by incubation at 37° C. for 20 min. Cells were washed with ice-cold imaging solution (pH 3.5), fixed, and counter-stained with Hoechst 33258.

[3] = Solubility / biophysical properties of next generation mimics
MIF = molecular target: T2, MIF (Homo sapiens, UniProt P14174); test: Fluorescence spectroscopic titration, binding to MIF
T2 construct: made in house
T2 sequence (P14174 2-115): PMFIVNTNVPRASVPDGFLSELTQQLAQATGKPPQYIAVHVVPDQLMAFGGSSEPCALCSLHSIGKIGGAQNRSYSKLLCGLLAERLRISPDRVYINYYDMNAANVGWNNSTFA
Protocol: as §1

[4] = test system: human monocyte-derived macrophages; details: read-out: IC50 of MIF-triggered Dil-oxLDL uptake; lower threshold of effect size roughly 50%
human monocytes = test: 3D migration of monocytes elicited by MIF (time-lapse microscopy); assay type: cell-based
Description: Isolation of human peripheral blood-derived monocytes. Human peripheral blood-derived monocytes were isolated as described^14. Briefly, blood was collected from healthy donors or buffy coat obtained from the blood bank of Munich University Hospital, mixed 1:1 with PBS, and PBMCs isolated by Ficoll-Paque Plus gradient (GE Healthcare). Monocytes were purified by negative depletion using the Monocyte Isolation Kit II (Miltenyi). Monocyte purity was verified by flow cytometry using an anti-CD14 antibody (Miltenyl) and was 95-98%. […] The isolation of PBMCs from donor blood was approved by the local ethics committee of LMU Munich. 3D migration of human peripheral blood-derived monocytes by time-lapse microscopy. The 3D-migration behavior of human monocytes was assessed by time-lapse microscopy and individual cell tracking using the 3D chemotaxis μ-Slide system from Ibidi GmbH (Munich, Germany), adapting the established Ibidi dendritic cell protocol for human monocytes. […] Cell motility was monitored performing time-lapse imaging every 1 min at 37° C. for 2 h using a Leica inverted DMi8-Life Cell Imaging System equipped with a DMC2900 Digital Microscope Camera with CMOS sensor and live cell-imaging software (Leica Microsystems, Wetzlar, Germany). Images were imported as stacks to ImageJ software and analyzed with the manual tracking and chemotaxis/migration tools (Ibidi GmbH).

[5] = Estimated solubility index by CD spectroscopy; assay type: physicochemical
Protocol: Circular dichroism (CD) spectroscopy. […] Far-UV CD measurements were carried out between 195 and 250 nm. The response time was set at 1 s, intervals at 0.1 nm, and bandwidth at 1 nm. All spectra were measured at RT and represent an average of three recorded spectra. Scans were recorded for the ectodomain mimic peptides at a concentration of 1-20 μM in 10 mM sodium phosphate buffer, pH 7.4, containing 1% HFIP, following dilution of freshly made peptide stock solution in HFIP (4° C.) into the buffer-containing cuvette. […] The background spectrum of buffer/1% HFIP alone was subtracted from the spectra of the peptides.

[6] = read-out: Alexa-488-MIF/ngm app. Kd (±SD), aqueous 1 × b, pH 7.4, 1% HFIP
[7] = Alexa-488-MIF/ngm app. Kd (±SD), aqueous 1 × b, pH 7.4, 1% HFIP
[8] = Fluos-ngm/MIF app. Kd (±SD), aqueous 1 × b, pH 7.4, 1% HFIP

T1 sequence (P48061 22-93): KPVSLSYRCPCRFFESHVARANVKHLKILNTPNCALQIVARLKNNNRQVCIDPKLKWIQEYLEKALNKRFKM

With `CC[C@H](C)[C@H](NC(=O)[C@H](Cc1ccc(O)cc1)NC(=O)[C@H](CCCNC(=N)N)NC(=O)[C@H](CC(=O)O)NC(=O)CCCCCCCCCCCNC(=O)COCCOCCNC(=O)[C@H](CCCCN)NC(=O)[C@H](CS)NC(=O)[C@H](CC(C)C)NC(=O)[C@H](Cc1ccccc1)NC(=O)[C@H](CC(N)=O)NC(=O)CNC(=O)[C@H](Cc1ccccc1)NC(=O)[C@H](Cc1ccc(O)cc1)NC(=O)[C@H](Cc1c[nH]c2ccccc12)NC(=O)[C@H](CC(N)=O)NC(=O)[C@H](C)NC(=O)[C@@H](NC(=O)[C@H](C)NC(=O)[C@@H](N)CC(=O)O)C(C)C)C(=O)N[C@@H](CS)C(=O)N[C@@H](CC(=O)O)C(=O)N[C@@H](CCCNC(=N)N)C(=O)N[C@@H](Cc1ccccc1)C(=O)N[C@@H](Cc1ccc(O)cc1)C(=O)N1CCC[C@H]1C(=O)N[C@@H](CC(N)=O)C(=O)N[C@@H](CC(=O)O)C(=O)N[C@@H](CC(C)C)C(=O)N[C@@H](Cc1c[nH]c2ccccc12)C(=O)N[C@H](C(N)=O)C(C)C` [msR4M-L2] the “inhibition of MIF-mediated B-cell chemotaxis” value [1] was “inhibits MIF-triggered B-lymphocyte chemotaxis; also recorded: fully blocked”.

In the case of `CC(C)C[C@H](NC(=O)[C@H](CC(=O)O)NC(=O)[C@H](CC(N)=O)NC(=O)[C@@H]1CCCN1C(=O)[C@H](Cc1ccc(O)cc1)NC(=O)[C@H](Cc1ccccc1)NC(=O)[C@H](CCCNC(=N)N)NC(=O)[C@H](CC(=O)O)NC(=O)CCCCCCCCCCCNC(=O)CCCCCNC(=O)[C@H](CCCCN)NC(=O)[C@H](CS)NC(=O)[C@H](CC(C)C)NC(=O)[C@H](Cc1ccccc1)NC(=O)[C@H](CC(N)=O)NC(=O)CNC(=O)[C@H](Cc1ccccc1)NC(=O)[C@H](Cc1ccc(O)cc1)NC(=O)[C@@H](N)Cc1c[nH]c2ccccc12)C(=O)N[C@@H](Cc1c[nH]c2ccccc12)C(N)=O` [msR4M-L3] (H-WYFGNFLCK[Ahx][12Ado]DRFYPNDLW-NH2), the “binding to CXCL12 (in words)” value (CXCL12) is reported as “essentially no binding affinity for CXCL12”, the “Atherogenic inhibitory activity (Dil-LDL uptake)” value (“Atherogenic inhibitory activity” for short) [2] is reported as 80% of % of full-length msR4M-L1 and the “solubility properties (in words)” value [3] is reported as “less favorable solubility properties”. The Kd (MIF; [6]) was 0.0117 µM, the Kd (MIF; read-out: Binding affinity (fluorescence spectroscopic titration) Kd, Table 7, reconnected short mimics) was 0.014 µM and the Kd (MIF; read-out: Fluos-ngm/MIF app. Kd (±SD), aqueous 1 × b, pH 7.4, 1% HFIP) was 0.0444 µM.

With `CC(C)C[C@H](NC(=O)[C@H](CC(=O)O)NC(=O)[C@H](CC(N)=O)NC(=O)[C@@H]1CCCN1C(=O)[C@H](Cc1ccc(O)cc1)NC(=O)[C@H](Cc1ccccc1)NC(=O)[C@H](CCCNC(=N)N)NC(=O)[C@H](CC(=O)O)NC(=O)CCCCCCCNC(=O)[C@H](CCCCN)NC(=O)[C@H](CS)NC(=O)[C@H](CC(C)C)NC(=O)[C@H](Cc1ccccc1)NC(=O)[C@H](CC(N)=O)NC(=O)CNC(=O)[C@H](Cc1ccccc1)NC(=O)[C@H](Cc1ccc(O)cc1)NC(=O)[C@@H](N)Cc1c[nH]c2ccccc12)C(=O)N[C@@H](Cc1c[nH]c2ccccc12)C(N)=O` [msR4M-L4] (H-WYFGNFLCK[Aoc]DRFYPNDLW-NH2) the “binding to CXCL12 (in words)” value (CXCL12) was “essentially no binding affinity for CXCL12”, the “Atherogenic inhibitory activity” value [2] was 80% of % of full-length msR4M-L1 and the “solubility properties (in words)” value [3] was “less favorable solubility properties”. It also gave a Kd (MIF; [7]) of 0.0432 µM and a Kd (MIF; [8]) of 0.0119 µM.

With `CC(C)C[C@H](NC(=O)[C@H](CC(=O)O)NC(=O)[C@H](CC(N)=O)NC(=O)[C@@H]1CCCN1C(=O)[C@H](Cc1ccc(O)cc1)NC(=O)[C@H](Cc1ccccc1)NC(=O)[C@H](CCCNC(=N)N)NC(=O)[C@H](CC(=O)O)NC(=O)COCCNC(=O)COCCNC(=O)[C@H](CCCCN)NC(=O)[C@H](CS)NC(=O)[C@H](CC(C)C)NC(=O)[C@H](Cc1ccccc1)NC(=O)[C@H](CC(N)=O)NC(=O)CNC(=O)[C@H](Cc1ccccc1)NC(=O)[C@H](Cc1ccc(O)cc1)NC(=O)[C@@H](N)Cc1c[nH]c2ccccc12)C(=O)N[C@@H](Cc1c[nH]c2ccccc12)C(N)=O` [msR4M-L5] (H-WYFGNFLCK[AEA][AEA]DRFYPNDLW-NH2) the “binding to CXCL12 (in words)” value (CXCL12) was “essentially no binding propensity for CXCL12”, the IC50 [4] was 0.0697 µM and the “Atherogenic inhibitory activity” value [2] was 30% of % of full-length msR4M-L1. For the same compound, the “solubility properties (in words)” value [3] was “favorable biophysical properties such as solubility”, the Kd (MIF; [7]) was 0.0418 µM and the Kd (MIF; Binding affinity (fluorescence spectroscopic titration) Kd, Table 8, mimics with enhanced solubility) was 0.03 to 0.04 µM. For the same compound, the Kd (MIF; [8]) was 0.0143 µM, the “effect on MIF-triggered 3D monocyte migration” value (human monocytes) was “inhibit the MIF-mediated monocytes migration” and the “Estimated solubility index by CD spectroscopy” value (from here on “Estimated solubility index”) [5] was >2× compared to × compared to msR4M-L1.

`CC(C)C[C@H](NC(=O)[C@H](CC(=O)O)NC(=O)[C@H](CC(N)=O)NC(=O)[C@@H]1CCCN1C(=O)[C@H](Cc1ccc(O)cc1)NC(=O)[C@H](Cc1ccccc1)NC(=O)[C@H](CCCNC(=N)N)NC(=O)[C@H](CC(=O)O)NC(=O)CNC(=O)CNC(=O)CNC(=O)[C@H](CCCCN)NC(=O)[C@H](CS)NC(=O)[C@H](CC(C)C)NC(=O)[C@H](Cc1ccccc1)NC(=O)[C@H](CC(N)=O)NC(=O)CNC(=O)[C@H](Cc1ccccc1)NC(=O)[C@H](Cc1ccc(O)cc1)NC(=O)[C@@H](N)Cc1c[nH]c2ccccc12)C(=O)N[C@@H](Cc1c[nH]c2ccccc12)C(N)=O` [msR4M-LG3] gave a Kd (MIF; [6]) of over 5 µM.

For H-WYFGNFLCKDDDDRFYPNDLW-NH2 [msR4M-LD3], the “binding to CXCL12 (in words)” value (CXCL12) was “essentially no binding propensity for CXCL12”, the IC50 [4] was 0.0014 µM and the “solubility properties (in words)” value [3] was “performing most superior”. For the same compound, the Kd (MIF; [6]) was 0.247 µM, the “effect on MIF-triggered 3D monocyte migration” value (human monocytes) was “inhibit the MIF-mediated monocytes migration” and the IC50 (human monocytes; 3D migration, one experiment, read-out: IC50 of MIF-mediated monocyte migration) was 0.0184 µM. For the same compound, the “Estimated solubility index” value [5] was >2× compared to × compared to msR4M-L1.

In the case of H-WYFGNFLCKKKKDRFYPNDLW-NH2 [msR4M-LK3], the “binding to CXCL12 (in words)” value (CXCL12) is reported as “good binding affinity for CXCL12” and the “solubility properties (in words)” value [3] is reported as “very good solubility properties”.

For H-WYFGNFLCKRRRDRFYPNDLW-NH2 [msR4M-LR3], the “binding to CXCL12 (in words)” value (CXCL12) was “good binding affinity for CXCL12”, the “solubility properties (in words)” value [3] was “very good solubility properties” and the “Estimated solubility index” value [5] was >2× compared to × compared to msR4M-L1.
